Data published in PMC9929631 (The EMBO Journal, 2023).
“Also recorded” adds a separate entry of the source. Read-outs that look alike come from different tables or passages of the source. Numbered stars: 1 amine (or outer) side, 2 acyl side, 3 side chain; on linkers, the order of the positions; unused ones are H or OH. Square brackets hold non-standard residues; d marks the D form. Ends that are not written are not given here. Peptide text beside a SMILES is read from it. * marks the point of attachment. X1 = N=c1ccc2c(-c3ccccc3C(=O)*)c3ccc(N)c(S(=O)(=O)O)c3oc-2c1S(=O)(=O)O; NMeGABA = CN(CCCC(=O)[*:2])[*:1]

Columns and labels:
DDB1‐DCAF12 [1] = biological target: T1, DDB1‐DCAF12 (Homo sapiens, UniProt Q16531+Q5T6F0); assay: TR-FRET competition assay; assay type: binding
[2] = system: DDB1‐DCAF12, DCAF12 Arg344Ala mutant; assay type: binding, human; details: TR-FRET titration, n = 3
[3] = system: DDB1‐DCAF12, DCAF12 His144Ala mutant; assay type: binding, human; details: TR-FRET titration, n = 3
[4] = system: DDB1‐DCAF12, DCAF12 Lys108Ala mutant; assay type: binding, human; details: TR-FRET titration, n = 3
[5] = system: DDB1‐DCAF12, DCAF12 Arg256Ala mutant; assay type: binding, human; details: TR-FRET titration, n = 3
[6] = system: DDB1‐DCAF12, DCAF12 Arg203Ala mutant; assay type: binding, human; details: TR-FRET titration, n = 3
[7] = biological target: biotinylated strep(II)-avi-DDB1-strep(II)-DCAF12 complex (wild type) (homo sapiens) (UniProt Q16531); assay: FRET or BRET
DDB1‐DCAF12 [8] = biological target: T1, DDB1‐DCAF12; assay: In vitro pull-downs with strep; assay type: binding; details: strep(II)-tagged DDB1-DCAF12, untagged CCT5; Coomassie-stained SDS–PAGE

T1 sequence (Q5T6F0 whole entry): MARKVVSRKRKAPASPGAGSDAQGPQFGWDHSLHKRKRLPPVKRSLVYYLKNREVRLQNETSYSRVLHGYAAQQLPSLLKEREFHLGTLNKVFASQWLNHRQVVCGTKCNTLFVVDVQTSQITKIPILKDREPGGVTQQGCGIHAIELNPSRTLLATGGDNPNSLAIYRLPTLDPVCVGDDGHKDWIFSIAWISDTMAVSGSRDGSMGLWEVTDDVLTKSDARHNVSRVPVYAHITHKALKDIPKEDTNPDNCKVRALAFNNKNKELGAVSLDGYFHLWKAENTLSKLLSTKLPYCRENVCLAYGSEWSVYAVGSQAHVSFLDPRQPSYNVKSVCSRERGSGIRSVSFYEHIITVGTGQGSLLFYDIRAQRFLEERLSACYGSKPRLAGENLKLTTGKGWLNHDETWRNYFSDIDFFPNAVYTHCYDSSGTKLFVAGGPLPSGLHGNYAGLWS
T1 sequence (Q16531 whole entry partner): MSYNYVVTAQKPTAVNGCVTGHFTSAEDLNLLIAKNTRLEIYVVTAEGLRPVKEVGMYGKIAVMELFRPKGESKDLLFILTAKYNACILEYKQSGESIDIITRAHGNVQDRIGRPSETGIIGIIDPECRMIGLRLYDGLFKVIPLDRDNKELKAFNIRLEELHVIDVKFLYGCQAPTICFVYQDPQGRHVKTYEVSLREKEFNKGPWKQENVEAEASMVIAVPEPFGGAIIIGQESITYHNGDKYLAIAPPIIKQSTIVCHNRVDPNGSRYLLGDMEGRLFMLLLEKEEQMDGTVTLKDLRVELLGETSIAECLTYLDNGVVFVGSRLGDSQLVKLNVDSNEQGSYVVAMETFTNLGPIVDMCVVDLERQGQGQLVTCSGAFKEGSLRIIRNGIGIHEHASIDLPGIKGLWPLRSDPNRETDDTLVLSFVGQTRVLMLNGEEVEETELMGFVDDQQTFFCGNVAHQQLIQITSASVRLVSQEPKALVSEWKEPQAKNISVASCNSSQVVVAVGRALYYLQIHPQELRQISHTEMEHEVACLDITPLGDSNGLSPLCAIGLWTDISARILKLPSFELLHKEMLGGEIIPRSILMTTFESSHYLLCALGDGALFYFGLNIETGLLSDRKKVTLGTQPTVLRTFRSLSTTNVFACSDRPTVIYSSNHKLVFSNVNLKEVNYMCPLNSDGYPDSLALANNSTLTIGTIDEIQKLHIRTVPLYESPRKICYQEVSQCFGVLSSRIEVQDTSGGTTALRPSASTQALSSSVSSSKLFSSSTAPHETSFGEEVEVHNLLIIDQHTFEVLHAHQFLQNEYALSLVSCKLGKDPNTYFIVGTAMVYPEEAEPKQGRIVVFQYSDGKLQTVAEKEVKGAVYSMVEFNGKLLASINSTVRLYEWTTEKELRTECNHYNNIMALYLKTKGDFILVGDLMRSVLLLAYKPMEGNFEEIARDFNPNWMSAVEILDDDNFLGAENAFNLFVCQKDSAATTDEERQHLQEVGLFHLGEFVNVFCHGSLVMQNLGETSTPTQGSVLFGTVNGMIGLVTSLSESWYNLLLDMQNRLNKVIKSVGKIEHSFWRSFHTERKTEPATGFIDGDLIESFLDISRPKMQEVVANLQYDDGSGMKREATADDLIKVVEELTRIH
Sequence of CCT5_(10) peptide Glu532Ala (P48643 whole entry, looked up, change not shown, tested part not stated): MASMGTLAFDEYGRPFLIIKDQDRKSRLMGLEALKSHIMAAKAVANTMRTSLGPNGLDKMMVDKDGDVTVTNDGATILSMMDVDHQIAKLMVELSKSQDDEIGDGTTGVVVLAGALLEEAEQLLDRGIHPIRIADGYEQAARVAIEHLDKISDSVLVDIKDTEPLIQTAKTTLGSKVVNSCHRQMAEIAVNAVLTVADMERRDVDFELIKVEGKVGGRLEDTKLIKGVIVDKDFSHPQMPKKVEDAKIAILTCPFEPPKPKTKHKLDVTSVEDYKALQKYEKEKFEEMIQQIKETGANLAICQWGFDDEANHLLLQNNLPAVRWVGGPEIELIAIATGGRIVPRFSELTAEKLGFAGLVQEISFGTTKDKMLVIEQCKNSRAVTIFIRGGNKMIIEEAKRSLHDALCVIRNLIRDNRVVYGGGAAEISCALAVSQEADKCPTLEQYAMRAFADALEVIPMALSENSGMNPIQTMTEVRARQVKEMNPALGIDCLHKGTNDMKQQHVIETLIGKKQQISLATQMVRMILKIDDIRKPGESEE
Sequence of biotinylated strep(II)-avi-DDB1-strep(II)-DCAF12 complex (wild type) (homo sapiens) (Q16531 whole entry, chain 1 of 2): as the sequence (Q16531 whole entry partner) above
Sequence of biotinylated strep(II)-avi-DDB1-strep(II)-DCAF12 complex (wild type) (homo sapiens) (Q5T6F0 whole entry, chain 2 of 2, further chain): as the sequence (Q5T6F0 whole entry) above

DARKPGESEE [CCT510 I533A]
IC50 (DDB1‐DCAF12 [1]): 209 ± 25 nM

DIRKAGESEE [CCT510 P536A]
IC50 (DDB1‐DCAF12 [1]): 417 ± 53 nM

CC[C@H](C)[C@H](NC(=O)[C@H](CCSC)NC(=O)[C@H](CCCNC(=N)N)NC(=O)[C@@H](NC(=O)[C@H](CCSC)NC(=O)[C@H](CCC(N)=O)NC(=O)CCCN(C)C(=O)c1ccccc1-c1c2ccc(=N)c(S(=O)(=O)O)c-2oc2c(S(=O)(=O)O)c(N)ccc12)C(C)C)C(=O)N[C@@H](CC(C)C)C(=O)N[C@@H](CCCCN)C(=O)N[C@H](C(=O)N[C@@H](CC(=O)O)C(=O)N[C@@H](CC(=O)O)C(=O)N[C@H](C(=O)N[C@@H](CCCNC(=N)N)C(=O)N[C@@H](CCCCN)C(=O)N1CCC[C@H]1C(=O)NCC(=O)N[C@@H](CCC(=O)O)C(=O)N[C@@H](CO)C(=O)N[C@@H](CCC(=O)O)C(=O)N[C@@H](CCC(=O)O)C(=O)O)[C@@H](C)CC)[C@@H](C)CC [^488CCT5_20] (X1-[NMeGABA]QMVRMILKIDDIRKPGESEE-OH; C-terminus assumed)
binding to DCAF12 Arg344Ala mutant (in words) [2]: failed to bind
binding to DCAF12 His144Ala mutant (in words) [3]: failed to bind
binding to DCAF12 Lys108Ala mutant (in words) [4]: failed to bind
binding to DCAF12 Arg256Ala mutant (in words) [5]: abolished; also recorded: failed to bind
binding to DCAF12 Arg203Ala mutant (in words) [6]: abrogated substrate binding

DIRKPGESEE [CCT5_10]
IC50 (DDB1‐DCAF12 [1]): 363 ± 78 nM

DIRKPGESAE [CCT510 E540A]
IC50 (DDB1‐DCAF12 [1]; IC50, TR-FRET competition against TbDDB1-DCAF12^488, n = 3): > 50000 nM

DIRAPGESEE [CCT510 K535A]
IC50 (DDB1‐DCAF12 [1]): 208 ± 26 nM

CCT5_(10) peptide Glu532Ala (from UniProt P48643 532-541)
IC50 [7]: 222 nM

AIRKPGESEE [CCT510 D532A]
IC50 (DDB1‐DCAF12 [1]): 222 ± 25 nM

DIRKPGASEE [CCT510 E538A]
IC50 (DDB1‐DCAF12 [1]): 571 ± 103 nM

CCT5 (1–529): CCT5 mutant without the 12 C‐terminal residues
binding to DDB1-DCAF12 in pull-down (in words) (DDB1‐DCAF12 [8]): did not bind

EGWRLFKIDKEYLLKMATEE [SAT1_20]
IC50 (DDB1‐DCAF12 [1]): 291 ± 38 nM

TRiC: recombinant ~ 1 MDa human TRiC chaperonin complex of eight co‐expressed subunits
IC50 (DDB1‐DCAF12 [1]; TR-FRET competition against TbDDB1-DCAF12^488, n = 3): > 10000 nM

DIAKPGESEE [CCT510 R534A]
IC50 (DDB1‐DCAF12 [1]): 395 ± 68 nM

CCT5: purified recombinant full‐length human CCT5, a subunit of the TRiC chaperonin, monomeric
binding to DDB1-DCAF12 in pull-down (in words) (DDB1‐DCAF12 [8]): efficiently bound

DIRKPGEAEE [CCT510 S539A]
IC50 (DDB1‐DCAF12 [1]): 125 ± 15 nM
